{"source": "patent US20240226125A1", "about": "“USE OF SOTAGLIFLOZIN FOR THE TREATMENT OF PATIENTS WITH TYPE 1 DIABETES MELLITUS” (priority 2019, published 2024)", "system": "adult patients with Type 1 Diabetes Mellitus who have inadequate glycemic control with insulin therapy", "test": "inTandem 1 and inTandem 2 pooled clinical studies, safety events / main risks", "format": "in vivo, human", "conditions": "Week 52", "key": {"[1]": {"conditions": "200 mg (N = 219), Baseline BMI <27 kg/m^2"}, "[2]": {"conditions": "200 mg (N = 305), Baseline BMI ≥27 kg/m^2"}, "[3]": {"conditions": "200 mg, Baseline BMI <27 kg/m^2"}, "[4]": {"conditions": "200 mg, Baseline BMI ≥27 kg/m^2"}, "[5]": {"conditions": "400 mg (N = 212), Baseline BMI <27 kg/m^2"}, "[6]": {"conditions": "400 mg (N = 313), Baseline BMI ≥27 kg/m^2"}}}
{"smiles": "CCOc1ccc(Cc2cc([C@@H]3O[C@H](SC)[C@@H](O)[C@H](O)[C@H]3O)ccc2Cl)cc1", "note": "[sotagliflozin, (2S,3R,4R,5S,6R)-2-(4-chloro-3-(4-ethoxybenzyl)phenyl)-6-(methylthio)tetrahydro-2H-pyran-3,4,5-triol]", "values": [{"measurement": "Genital Mycotic Infections (male), Events [n (%) n]: patients n", "setting": "200 mg (N = 108), Baseline BMI <27 kg/m^2", "result": 2}, {"measurement": "Genital Mycotic Infections (female), Events [n (%) n]: patients n", "setting": "200 mg (N = 111), Baseline BMI <27 kg/m^2", "result": 8}, {"measurement": "Genital Mycotic Infections (female), Events [n (%) n]: patients n", "setting": "200 mg (N = 148), Baseline BMI ≥27 kg/m^2", "result": 32}, {"measurement": "Genital Mycotic Infections (male), Events [n (%) n]: patients n", "setting": "200 mg (N = 157), Baseline BMI ≥27 kg/m^2", "result": 6}, {"measurement": "Positively Adjudicated Diabetic Ketoacidosis, Events [n (%) n]: patients n", "setting": "[1]", "result": 7}, {"measurement": "Positively Adjudicated Severe Hypoglycemia, Events [n (%) n]: patients n", "setting": "[1]", "result": 17}, {"measurement": "Positively Adjudicated Diabetic Ketoacidosis, Events [n (%) n]: patients n", "setting": "[2]", "result": 8}, {"measurement": "Positively Adjudicated Severe Hypoglycemia, Events [n (%) n]: patients n", "setting": "[2]", "result": 13}, {"measurement": "Diarrhea, EAIR per 1,000 Subject-years (95% CL)", "setting": "[3]", "result": "89.76 (48.29, 131.23) per 1,000 Subject-years"}, {"measurement": "Diarrhea, Events [n (%) n]: events n", "setting": "[3]", "result": 23}, {"measurement": "Diarrhea, Events [n (%) n]: patients (%)", "setting": "[3]", "result": 8.2, "unit": "%"}, {"measurement": "Diarrhea, Events [n (%) n]: patients n", "setting": "[3]", "result": 18}, {"measurement": "Diarrhea, Events per Subject per Year", "setting": "[3]", "result": "0.115 Events per Subject per Year"}, {"measurement": "Diarrhea, Relative Risk of EAIR (95% CL) Versus Placebo", "setting": "[3]", "result": "2.60 (1.11, 6.68)"}, {"measurement": "Documented hypoglycemia <55 mg/dL, Events per Subject per Year", "setting": "[3]", "result": "16.86 Events per Subject per Year"}, {"measurement": "Genital Mycotic Infections (female), EAIR per 1,000 Subject-years (95% CL)", "setting": "[3]", "result": "78.17 (24.00, 132.34) per 1,000 Subject-years"}, {"measurement": "Genital Mycotic Infections (female), Events [n (%) n]: events n", "setting": "[3]", "result": 10}, {"measurement": "Genital Mycotic Infections (female), Events [n (%) n]: patients (%)", "setting": "[3]", "result": 7.2, "unit": "%"}, {"measurement": "Genital Mycotic Infections (female), Events per Subject per Year", "setting": "[3]", "result": "0.098 Events per Subject per Year"}, {"measurement": "Genital Mycotic Infections (female), Relative Risk of EAIR (95% CL) Versus Placebo", "setting": "[3]", "result": "2.57 (0.70, 11.96)"}, {"measurement": "Genital Mycotic Infections (male), EAIR per 1,000 Subject-years (95% CL)", "setting": "[3]", "result": "20.37 (0.00, 48.60) per 1,000 Subject-years"}, {"measurement": "Genital Mycotic Infections (male), Events [n (%) n]: events n", "setting": "[3]", "result": 2}, {"measurement": "Genital Mycotic Infections (male), Events [n (%) n]: patients (%)", "setting": "[3]", "result": 1.9, "unit": "%"}, {"measurement": "Genital Mycotic Infections (male), Events per Subject per Year", "setting": "[3]", "result": "0.020 Events per Subject per Year"}, {"measurement": "Genital Mycotic Infections (male), Relative Risk of EAIR (95% CL) Versus Placebo", "setting": "[3]", "result": "1.06 (0.11, 10.19)"}, {"measurement": "Positively Adjudicated Diabetic Ketoacidosis, EAIR per 1,000 Subject-years (95% CL)", "setting": "[3]", "result": "34.91 (9.05, 60.77) per 1,000 Subject-years"}, {"measurement": "Positively Adjudicated Diabetic Ketoacidosis, Events [n (%) n]: events n", "setting": "[3]", "result": 7}, {"measurement": "Positively Adjudicated Diabetic Ketoacidosis, Events [n (%) n]: patients (%)", "setting": "[3]", "result": 3.2, "unit": "%"}, {"measurement": "Positively Adjudicated Diabetic Ketoacidosis, Events per Subject per Year", "setting": "[3]", "result": "0.035 Events per Subject per Year"}, {"measurement": "Positively Adjudicated Severe Hypoglycemia, EAIR per 1,000 Subject-years (95% CL)", "setting": "[3]", "result": "84.77 (44.48, 125.07) per 1,000 Subject-years"}, {"measurement": "Positively Adjudicated Severe Hypoglycemia, Events [n (%) n]: events n", "setting": "[3]", "result": 43}, {"measurement": "Positively Adjudicated Severe Hypoglycemia, Events [n (%) n]: patients (%)", "setting": "[3]", "result": 7.8, "unit": "%"}, {"measurement": "Positively Adjudicated Severe Hypoglycemia, Events per Subject per Year", "setting": "[3]", "result": "0.214 Events per Subject per Year"}, {"measurement": "Positively Adjudicated Severe Hypoglycemia, Relative Risk of EAIR (95% CL) Versus Placebo", "setting": "[3]", "result": "1.01 (0.51, 2.00)"}, {"measurement": "Diarrhea, EAIR per 1,000 Subject-years (95% CL)", "setting": "[4]", "result": "57.25 (29.20, 85.30) per 1,000 Subject-years"}, {"measurement": "Diarrhea, Events [n (%) n]: events n", "setting": "[4]", "result": 22}, {"measurement": "Diarrhea, Events [n (%) n]: patients (%)", "setting": "[4]", "result": 5.2, "unit": "%"}, {"measurement": "Diarrhea, Events [n (%) n]: patients n", "setting": "[4]", "result": 16}, {"measurement": "Diarrhea, Events per Subject per Year", "setting": "[4]", "result": "0.079 Events per Subject per Year"}, {"measurement": "Diarrhea, Relative Risk of EAIR (95% CL) Versus Placebo", "setting": "[4]", "result": "0.78 (0.40, 1.51)"}, {"measurement": "Documented hypoglycemia <55 mg/dL, Events per Subject per Year", "setting": "[4]", "result": "13.41 Events per Subject per Year"}, {"measurement": "Genital Mycotic Infections (female), EAIR per 1,000 Subject-years (95% CL)", "setting": "[4]", "result": "240.02 (156.86, 323.19) per 1,000 Subject-years"}, {"measurement": "Genital Mycotic Infections (female), Events [n (%) n]: events n", "setting": "[4]", "result": 41}, {"measurement": "Genital Mycotic Infections (female), Events [n (%) n]: patients (%)", "setting": "[4]", "result": 21.6, "unit": "%"}, {"measurement": "Genital Mycotic Infections (female), Events per Subject per Year", "setting": "[4]", "result": "0.308 Events per Subject per Year"}, {"measurement": "Genital Mycotic Infections (female), Relative Risk of EAIR (95% CL) Versus Placebo", "setting": "[4]", "result": "3.37 (1.65, 7.46)"}, {"measurement": "Genital Mycotic Infections (male), EAIR per 1,000 Subject-years (95% CL)", "setting": "[4]", "result": "41.05 (8.20, 73.89) per 1,000 Subject-years"}, {"measurement": "Genital Mycotic Infections (male), Events [n (%) n]: events n", "setting": "[4]", "result": 7}, {"measurement": "Genital Mycotic Infections (male), Events [n (%) n]: patients (%)", "setting": "[4]", "result": 3.8, "unit": "%"}, {"measurement": "Genital Mycotic Infections (male), Events per Subject per Year", "setting": "[4]", "result": "0.048 Events per Subject per Year"}, {"measurement": "Genital Mycotic Infections (male), Relative Risk of EAIR (95% CL) Versus Placebo", "setting": "[4]", "result": "5.96 (0.88, 138.01)"}, {"measurement": "Positively Adjudicated Diabetic Ketoacidosis, EAIR per 1,000 Subject-years (95% CL)", "setting": "[4]", "result": "28.62 (8.79, 48.46) per 1,000 Subject-years"}, {"measurement": "Positively Adjudicated Diabetic Ketoacidosis, Events [n (%) n]: events n", "setting": "[4]", "result": 9}, {"measurement": "Positively Adjudicated Diabetic Ketoacidosis, Events [n (%) n]: patients (%)", "setting": "[4]", "result": 2.6, "unit": "%"}, {"measurement": "Positively Adjudicated Diabetic Ketoacidosis, Events per Subject per Year", "setting": "[4]", "result": "0.032 Events per Subject per Year"}, {"measurement": "Positively Adjudicated Diabetic Ketoacidosis, Relative Risk of EAIR (95% CL) Versus Placebo", "setting": "[4]", "result": "7.77 (1.24, 173.82)"}, {"measurement": "Positively Adjudicated Severe Hypoglycemia, EAIR per 1,000 Subject-years (95% CL)", "setting": "[4]", "result": "46.51 (21.23, 71.80) per 1,000 Subject-years"}, {"measurement": "Positively Adjudicated Severe Hypoglycemia, Events [n (%) n]: events n", "setting": "[4]", "result": 25}, {"measurement": "Positively Adjudicated Severe Hypoglycemia, Events [n (%) n]: patients (%)", "setting": "[4]", "result": 4.3, "unit": "%"}, {"measurement": "Positively Adjudicated Severe Hypoglycemia, Events per Subject per Year", "setting": "[4]", "result": "0.089 Events per Subject per Year"}, {"measurement": "Positively Adjudicated Severe Hypoglycemia, Relative Risk of EAIR (95% CL) Versus Placebo", "setting": "[4]", "result": "0.57 (0.28, 1.14)"}, {"measurement": "Genital Mycotic Infections (male), Events [n (%) n]: patients n", "setting": "400 mg (N = 99), Baseline BMI <27 kg/m^2", "result": 9}, {"measurement": "Genital Mycotic Infections (female), Events [n (%) n]: patients n", "setting": "400 mg (N = 113), Baseline BMI <27 kg/m^2", "result": 19}, {"measurement": "Genital Mycotic Infections (male), Events [n (%) n]: patients n", "setting": "400 mg (N = 154), Baseline BMI ≥27 kg/m^2", "result": 7}, {"measurement": "Genital Mycotic Infections (female), Events [n (%) n]: patients n", "setting": "400 mg (N = 159), Baseline BMI ≥27 kg/m^2", "result": 28}, {"measurement": "Positively Adjudicated Diabetic Ketoacidosis, Events [n (%) n]: patients n", "setting": "[5]", "result": 9}, {"measurement": "Positively Adjudicated Severe Hypoglycemia, Events [n (%) n]: patients n", "setting": "[5]", "result": 11}, {"measurement": "Positively Adjudicated Diabetic Ketoacidosis, Events [n (%) n]: patients n", "setting": "[6]", "result": 11}, {"measurement": "Positively Adjudicated Severe Hypoglycemia, Events [n (%) n]: patients n", "setting": "[6]", "result": 12}]}
